Measurements taken from article PMC8881512 (Nature Communications, 2022).
Several values for one entry are separate records, joined by “and”; a condition that tells them apart may be missing. Equal values may be shown once.

Experiments:
IKKb/IKBKB = biological target: T1, IKKb/IKBKB (Homo sapiens, UniProt O14920); assay: Kinome profiling; format: biochemical; settings: VT02956 (5 nM), read-out: % enzymatic activity relative to DMSO controls
T1 construct: LATS1/LATS2 enzymes from Signalchem

BLK = biological target: T2, BLK (Homo sapiens, UniProt P51451); assay: Kinome profiling; format: biochemical; settings: VT02956 (5 nM), read-out: % enzymatic activity relative to DMSO controls
T2 construct: LATS1/LATS2 enzymes from Signalchem

COT1/MAP3K8 = biological target: T3, COT1/MAP3K8 (Homo sapiens, UniProt P41279); assay: Kinome profiling; format: biochemical; settings: VT02956 (5 nM), read-out: % enzymatic activity relative to DMSO controls
T3 construct: LATS1/LATS2 enzymes from Signalchem

EPHA3 = biological target: T4, EPHA3 (Homo sapiens, UniProt P29320); assay: Kinome profiling; format: biochemical; settings: VT02956 (5 nM), read-out: % enzymatic activity relative to DMSO controls
T4 construct: LATS1/LATS2 enzymes from Signalchem

PKAcg = biological target: T5, PKAcg (Homo sapiens, UniProt P22612); assay: Kinome profiling; format: biochemical; settings: VT02956 (5 nM), read-out: % enzymatic activity relative to DMSO controls
T5 construct: LATS1/LATS2 enzymes from Signalchem

SNRK = biological target: T6, SNRK (Homo sapiens, UniProt Q9NRH2); assay: Kinome profiling; format: biochemical; settings: VT02956 (5 nM), read-out: % enzymatic activity relative to DMSO controls
T6 construct: LATS1/LATS2 enzymes from Signalchem

4T1 cells = assay: Cell viability, 4T1; format: cell-based
HGK/MAP4K4 = biological target: T7, HGK/MAP4K4 (Homo sapiens, UniProt O95819); assay: Kinome profiling; format: biochemical; settings: VT02956 (5 nM), read-out: % enzymatic activity relative to DMSO controls
T7 construct: LATS1/LATS2 enzymes from Signalchem

PKN1/PRK1 = biological target: T8, PKN1/PRK1 (Homo sapiens, UniProt Q16512); assay: Kinome profiling; format: biochemical; settings: VT02956 (5 nM), read-out: % enzymatic activity relative to DMSO controls
T8 construct: LATS1/LATS2 enzymes from Signalchem

KSR2 = biological target: T9, KSR2 (Homo sapiens, UniProt Q6VAB6); assay: Kinome profiling; format: biochemical; settings: VT02956 (5 nM), read-out: % enzymatic activity relative to DMSO controls
T9 construct: LATS1/LATS2 enzymes from Signalchem

STK38L/NDR2 = biological target: T10, STK38L/NDR2 (Homo sapiens, UniProt Q9Y2H1); assay: Kinome profiling; format: biochemical; settings: VT02956 (5 nM), read-out: % enzymatic activity relative to DMSO controls
T10 construct: LATS1/LATS2 enzymes from Signalchem

RIPK2 = biological target: T11, RIPK2 (Homo sapiens, UniProt O43353); assay: Kinome profiling; format: biochemical; settings: VT02956 (5 nM), read-out: % enzymatic activity relative to DMSO controls
T11 construct: LATS1/LATS2 enzymes from Signalchem

CHK1 = biological target: T12, CHK1 (Homo sapiens, UniProt O14757); assay: Kinome profiling; format: biochemical; settings: VT02956 (5 nM)
T12 construct: LATS1/LATS2 enzymes from Signalchem

MSK1/RPS6KA5 = biological target: T13, MSK1/RPS6KA5 (Homo sapiens, UniProt O75582); assay: Kinome profiling; format: biochemical; settings: VT02956 (5 nM), read-out: % enzymatic activity relative to DMSO controls
T13 construct: LATS1/LATS2 enzymes from Signalchem

[1] = system: ER+ breast tumour organoids (BTO-02); assay: 3D organoids drug response assay (CellTiter-Glo 3D); format: cell-based, human; settings: 3D drug killing assay; 12 days after compound treatment; Fig. 6b
Experimental: Breast tumour organoids were dissociated into single cells using TrypLE Express and counted with automated cell counter. Subsequently, 1000 cells were mixed in 10 μl BME type 2, seeded onto 96-well plate in triplicate and overlaid with 100 μl BC organoid medium (BOM) after BME gelation. Three days after organoids sphere formation, medium was removed and replaced by 100 μl of complete medium containing VT02956 (0, 0.04, 0.2, 1, 5 μM) or vehicle (DMSO). The drug-containing medium was refreshed every 3 days for additional 3–4 times. At the end of the treatment, the effect of the drugs on the tumour organoids, in terms of the organoids cell growth, was assayed with CellTiter-Glo 3D (Promega) according to the manufacturer’s instructions and were normalised to vehicle controls (0.5% DMSO content). The IC50 values was calculated in GraphPad Prism 8.

STK38/NDR1 = biological target: T14, STK38/NDR1 (Homo sapiens, UniProt Q15208); assay: Kinome profiling; format: biochemical; settings: VT02956 (5 nM), read-out: % enzymatic activity relative to DMSO controls
T14 construct: LATS1/LATS2 enzymes from Signalchem

PHKg2 = biological target: T15, PHKg2 (Homo sapiens, UniProt P15735); assay: Kinome profiling; format: biochemical; settings: VT02956 (5 nM), read-out: % enzymatic activity relative to DMSO controls
T15 construct: LATS1/LATS2 enzymes from Signalchem

MDA-MB-231 cells = assay: Cell proliferation, MDA-MB-231; format: cell-based; settings: 0.5 µM or 2 µM VT02956 for 4 days; Supplementary Fig. 8e
Experimental: (§1) Cell proliferation rates were determined by automated cell counter. In brief, cells were plated at density of 0.1 million cells per well in six-well plate. Cell numbers were counted by the indicated time point as stated in the figure legends.

CK2a2 = biological target: T16, CK2a2 (Homo sapiens, UniProt P19784); assay: Kinome profiling; format: biochemical; settings: VT02956 (5 nM), read-out: % enzymatic activity relative to DMSO controls
T16 construct: LATS1/LATS2 enzymes from Signalchem

MUSK = biological target: T17, MUSK (Homo sapiens, UniProt O15146); assay: Kinome profiling; format: biochemical; settings: VT02956 (5 nM), read-out: % enzymatic activity relative to DMSO controls
T17 construct: LATS1/LATS2 enzymes from Signalchem

p70S6Kb/RPS6KB2 = biological target: T18, p70S6Kb/RPS6KB2 (Homo sapiens, UniProt Q9UBS0); assay: Kinome profiling; format: biochemical; settings: VT02956 (5 nM), read-out: % enzymatic activity relative to DMSO controls
T18 construct: LATS1/LATS2 enzymes from Signalchem

MCF-7 cells = assay: Cell proliferation by cell counting, MCF-7; format: cell-based, human; settings: for Cell proliferation normalised to DMSO treated WT cells: 4 days, Fig.6c
Experimental: as §1

PKA = biological target: T19, PKA (Homo sapiens, UniProt P17612); assay: Kinome profiling; format: biochemical; settings: VT02956 (5 nM), read-out: % enzymatic activity relative to DMSO controls
T19 construct: LATS1/LATS2 enzymes from Signalchem

AKT2 = biological target: T20, AKT2 (Homo sapiens, UniProt P31751); assay: Kinome profiling; format: biochemical; settings: VT02956 (5 nM), read-out: % enzymatic activity relative to DMSO controls
T20 construct: LATS1/LATS2 enzymes from Signalchem

AKT1 = biological target: T21, AKT1 (Homo sapiens, UniProt P31749); assay: Kinome profiling; format: biochemical; settings: VT02956 (5 nM)
T21 construct: LATS1/LATS2 enzymes from Signalchem

T7 sequence (O95819 whole entry): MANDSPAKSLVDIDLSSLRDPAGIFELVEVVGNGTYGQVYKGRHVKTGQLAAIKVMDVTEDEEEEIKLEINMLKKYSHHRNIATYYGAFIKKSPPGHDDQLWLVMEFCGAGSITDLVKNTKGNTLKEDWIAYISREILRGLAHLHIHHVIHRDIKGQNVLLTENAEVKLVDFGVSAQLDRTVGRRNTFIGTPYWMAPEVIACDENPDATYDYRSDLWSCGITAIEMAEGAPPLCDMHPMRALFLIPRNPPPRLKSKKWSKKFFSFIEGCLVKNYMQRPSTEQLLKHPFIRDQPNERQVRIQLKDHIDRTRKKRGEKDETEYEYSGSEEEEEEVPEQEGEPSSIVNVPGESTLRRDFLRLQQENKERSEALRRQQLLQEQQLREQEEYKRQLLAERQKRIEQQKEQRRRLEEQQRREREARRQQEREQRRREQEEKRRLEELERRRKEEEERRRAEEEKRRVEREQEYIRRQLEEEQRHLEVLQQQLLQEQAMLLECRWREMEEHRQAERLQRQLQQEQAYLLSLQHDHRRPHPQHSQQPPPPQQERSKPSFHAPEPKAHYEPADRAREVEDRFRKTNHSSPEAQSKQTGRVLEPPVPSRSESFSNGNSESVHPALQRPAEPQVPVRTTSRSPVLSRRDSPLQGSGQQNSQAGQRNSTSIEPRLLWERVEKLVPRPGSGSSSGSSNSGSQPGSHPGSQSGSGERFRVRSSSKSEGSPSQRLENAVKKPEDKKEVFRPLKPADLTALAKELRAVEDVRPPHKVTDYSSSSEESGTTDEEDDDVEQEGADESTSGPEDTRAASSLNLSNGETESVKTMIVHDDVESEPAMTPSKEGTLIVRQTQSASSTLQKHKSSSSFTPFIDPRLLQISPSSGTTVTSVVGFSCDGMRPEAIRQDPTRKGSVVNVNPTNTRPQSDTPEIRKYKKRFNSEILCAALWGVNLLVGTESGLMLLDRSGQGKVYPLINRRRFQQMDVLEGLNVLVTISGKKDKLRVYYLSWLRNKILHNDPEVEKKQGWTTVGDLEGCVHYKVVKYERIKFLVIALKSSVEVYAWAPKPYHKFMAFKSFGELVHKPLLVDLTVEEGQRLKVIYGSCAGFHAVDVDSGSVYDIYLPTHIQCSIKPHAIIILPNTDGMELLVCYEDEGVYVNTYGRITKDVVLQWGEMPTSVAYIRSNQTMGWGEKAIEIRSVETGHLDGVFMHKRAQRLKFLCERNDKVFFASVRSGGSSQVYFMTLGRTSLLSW
T15 sequence (P15735 whole entry): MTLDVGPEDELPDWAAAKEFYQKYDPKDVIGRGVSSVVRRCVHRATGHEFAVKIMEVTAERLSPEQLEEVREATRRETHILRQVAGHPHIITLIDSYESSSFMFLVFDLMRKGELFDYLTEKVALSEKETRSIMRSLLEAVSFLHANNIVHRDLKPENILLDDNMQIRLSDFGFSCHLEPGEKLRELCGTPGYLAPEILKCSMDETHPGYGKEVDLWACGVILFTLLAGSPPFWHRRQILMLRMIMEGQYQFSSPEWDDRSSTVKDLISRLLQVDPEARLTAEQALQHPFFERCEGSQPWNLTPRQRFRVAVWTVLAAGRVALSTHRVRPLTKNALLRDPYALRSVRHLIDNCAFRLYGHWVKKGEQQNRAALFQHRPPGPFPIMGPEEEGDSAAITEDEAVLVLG
T8 sequence (Q16512 whole entry): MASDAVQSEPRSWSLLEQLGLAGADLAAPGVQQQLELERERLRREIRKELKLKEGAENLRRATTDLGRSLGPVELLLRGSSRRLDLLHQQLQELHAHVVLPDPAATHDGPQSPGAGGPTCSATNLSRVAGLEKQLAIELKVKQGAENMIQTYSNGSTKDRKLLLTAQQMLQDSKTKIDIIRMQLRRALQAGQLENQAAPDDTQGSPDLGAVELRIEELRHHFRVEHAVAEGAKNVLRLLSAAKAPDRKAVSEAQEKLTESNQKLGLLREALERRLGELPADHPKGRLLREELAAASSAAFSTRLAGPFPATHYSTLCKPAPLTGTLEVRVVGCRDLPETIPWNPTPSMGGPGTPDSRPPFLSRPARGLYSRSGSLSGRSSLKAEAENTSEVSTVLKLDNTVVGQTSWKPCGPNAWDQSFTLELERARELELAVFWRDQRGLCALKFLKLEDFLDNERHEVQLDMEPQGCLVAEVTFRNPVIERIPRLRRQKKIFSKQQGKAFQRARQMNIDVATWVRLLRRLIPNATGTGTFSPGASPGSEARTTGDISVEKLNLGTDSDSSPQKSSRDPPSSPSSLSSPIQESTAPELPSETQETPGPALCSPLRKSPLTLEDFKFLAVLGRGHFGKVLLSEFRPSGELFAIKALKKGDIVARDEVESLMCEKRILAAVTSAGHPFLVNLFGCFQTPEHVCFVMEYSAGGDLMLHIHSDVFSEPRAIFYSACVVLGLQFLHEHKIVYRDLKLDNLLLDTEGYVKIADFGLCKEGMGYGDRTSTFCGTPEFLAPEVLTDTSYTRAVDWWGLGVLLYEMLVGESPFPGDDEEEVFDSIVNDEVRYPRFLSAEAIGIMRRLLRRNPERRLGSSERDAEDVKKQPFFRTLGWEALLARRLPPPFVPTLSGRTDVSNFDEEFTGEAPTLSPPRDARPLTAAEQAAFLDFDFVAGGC
T12 sequence (O14757 whole entry): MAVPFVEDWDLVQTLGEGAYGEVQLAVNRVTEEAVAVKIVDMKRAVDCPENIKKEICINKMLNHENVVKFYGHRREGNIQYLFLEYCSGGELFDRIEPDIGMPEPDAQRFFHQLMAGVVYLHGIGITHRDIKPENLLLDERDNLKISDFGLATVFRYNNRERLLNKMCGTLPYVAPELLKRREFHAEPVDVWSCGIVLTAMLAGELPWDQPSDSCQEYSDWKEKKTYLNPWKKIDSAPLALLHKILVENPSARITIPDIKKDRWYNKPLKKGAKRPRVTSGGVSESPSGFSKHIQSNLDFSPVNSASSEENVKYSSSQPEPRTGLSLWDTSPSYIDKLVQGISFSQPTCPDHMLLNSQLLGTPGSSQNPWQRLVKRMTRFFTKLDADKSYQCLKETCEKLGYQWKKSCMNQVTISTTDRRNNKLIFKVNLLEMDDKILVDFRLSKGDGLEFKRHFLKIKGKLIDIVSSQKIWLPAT
T17 sequence (O15146 24-869): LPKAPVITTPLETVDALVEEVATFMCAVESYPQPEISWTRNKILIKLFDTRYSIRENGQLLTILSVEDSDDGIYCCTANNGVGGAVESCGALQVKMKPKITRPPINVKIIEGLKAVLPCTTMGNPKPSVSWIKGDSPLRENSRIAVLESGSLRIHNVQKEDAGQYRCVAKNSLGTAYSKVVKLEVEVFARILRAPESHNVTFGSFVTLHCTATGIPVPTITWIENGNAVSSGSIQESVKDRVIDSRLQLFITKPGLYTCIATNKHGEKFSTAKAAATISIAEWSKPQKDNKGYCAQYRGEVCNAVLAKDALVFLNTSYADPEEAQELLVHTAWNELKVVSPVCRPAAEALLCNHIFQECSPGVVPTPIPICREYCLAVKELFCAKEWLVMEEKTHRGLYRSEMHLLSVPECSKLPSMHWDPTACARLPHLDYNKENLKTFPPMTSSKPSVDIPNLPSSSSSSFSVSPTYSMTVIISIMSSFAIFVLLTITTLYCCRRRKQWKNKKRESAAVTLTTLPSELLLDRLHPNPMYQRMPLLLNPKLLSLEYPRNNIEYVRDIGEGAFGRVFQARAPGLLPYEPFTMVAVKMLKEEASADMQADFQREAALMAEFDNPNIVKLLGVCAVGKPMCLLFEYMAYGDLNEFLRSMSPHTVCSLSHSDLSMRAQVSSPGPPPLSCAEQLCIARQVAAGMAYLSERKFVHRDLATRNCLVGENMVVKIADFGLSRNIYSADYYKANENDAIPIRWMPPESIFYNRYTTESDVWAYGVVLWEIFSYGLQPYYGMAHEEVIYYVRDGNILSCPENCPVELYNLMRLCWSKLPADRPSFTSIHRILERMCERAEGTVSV
T11 sequence (O43353 whole entry): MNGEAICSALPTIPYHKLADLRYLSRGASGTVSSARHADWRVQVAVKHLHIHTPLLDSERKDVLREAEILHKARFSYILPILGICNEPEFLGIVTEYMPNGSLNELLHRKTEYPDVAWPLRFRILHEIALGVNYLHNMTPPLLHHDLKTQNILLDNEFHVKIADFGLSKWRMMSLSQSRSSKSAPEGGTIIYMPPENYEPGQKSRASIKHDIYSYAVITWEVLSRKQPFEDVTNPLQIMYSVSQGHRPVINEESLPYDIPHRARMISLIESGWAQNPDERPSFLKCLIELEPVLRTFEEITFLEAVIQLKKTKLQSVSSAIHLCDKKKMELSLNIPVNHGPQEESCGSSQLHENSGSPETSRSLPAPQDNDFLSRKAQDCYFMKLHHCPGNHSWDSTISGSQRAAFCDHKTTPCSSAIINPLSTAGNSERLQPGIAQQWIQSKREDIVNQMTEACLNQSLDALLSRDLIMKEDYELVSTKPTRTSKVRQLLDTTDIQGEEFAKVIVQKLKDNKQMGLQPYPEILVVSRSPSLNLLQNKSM
T3 sequence (P41279 whole entry): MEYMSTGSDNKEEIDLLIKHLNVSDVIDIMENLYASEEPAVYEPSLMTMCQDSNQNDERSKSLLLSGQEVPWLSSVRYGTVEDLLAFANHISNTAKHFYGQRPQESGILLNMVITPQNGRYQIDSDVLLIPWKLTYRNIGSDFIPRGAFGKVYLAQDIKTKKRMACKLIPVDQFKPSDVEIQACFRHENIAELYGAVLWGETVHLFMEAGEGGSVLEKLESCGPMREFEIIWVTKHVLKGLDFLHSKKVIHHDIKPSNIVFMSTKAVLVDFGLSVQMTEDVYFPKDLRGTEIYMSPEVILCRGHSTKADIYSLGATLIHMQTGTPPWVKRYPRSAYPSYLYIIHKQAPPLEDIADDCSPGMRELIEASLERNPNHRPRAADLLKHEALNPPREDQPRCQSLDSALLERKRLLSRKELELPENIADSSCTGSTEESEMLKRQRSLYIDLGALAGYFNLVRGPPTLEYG

Question: NCC1CCN(c2nc(-c3ccncc3)nc3c(C#CCO)cccc23)CC1 [VT02956] was tested. Which remaining activity at 0.005 µM (IKKb/IKBKB) did it give?
Answer: 86%

Question: What about the remaining activity at 0.005 µM (BLK) of the same compound?
Answer: 78%

Question: What about the remaining activity at 0.005 µM (COT1/MAP3K8) of the same compound?
Answer: 86%

Question: And the remaining activity at 0.005 µM (EPHA3)?
Answer: 84%

Question: What about the remaining activity at 0.005 µM (PKAcg) of the same compound?
Answer: 28%

Question: And the remaining activity at 0.005 µM (SNRK)?
Answer: 86%

Question: What about the IC50 (4T1 cells; Mus musculus, 4T1 cells, n = 2, read-out: Cell viability inhibition IC50) of the same compound?
Answer: > 10 µM

Question: And the “growth of ER negative breast cancer cells 4T1 (cell viability)” value (4T1 cells; increasing concentrations of VT02956, Supplementary Fig. 8g)?
Answer: does not inhibit the growth

Question: And the remaining activity at 0.005 µM (HGK/MAP4K4)?
Answer: 85%

Question: And the remaining activity at 0.005 µM (PKN1/PRK1)?
Answer: 69%

Question: And the remaining activity at 0.005 µM (KSR2)?
Answer: 83%

Question: And the remaining activity at 0.005 µM (STK38L/NDR2)?
Answer: 29%

Question: What about the remaining activity at 0.005 µM (RIPK2) of the same compound?
Answer: 75%

Question: What about the “% enzymatic activity relative to DMSO controls” value (CHK1) of the same compound?
Answer: 80%

Question: And the remaining activity at 0.005 µM (MSK1/RPS6KA5)?
Answer: 49%

Question: What about the “growth of ER+ breast tumour organoids (BTOs)” value [1] of the same compound?
Answer: sensitive

Question: What about the remaining activity at 0.005 µM (STK38/NDR1) of the same compound?
Answer: 16%

Question: What about the remaining activity at 0.005 µM (PHKg2) of the same compound?
Answer: 82%

Question: And the “growth of ER negative breast cancer MDA-MB-231 cells” value (MDA-MB-231 cells)?
Answer: had little effect

Question: What about the remaining activity at 0.005 µM (CK2a2) of the same compound?
Answer: 78%

Question: What about the remaining activity at 0.005 µM (MUSK) of the same compound?
Answer: 85%

Question: What about the remaining activity at 0.005 µM (p70S6Kb/RPS6KB2) of the same compound?
Answer: 65%

Question: And the MCF-7 proliferation (MCF-7 cells; 0.5 µM or 2 µM, 4-day time course, Supplementary Fig. 8a, b)?
Answer: inhibited the proliferation of MCF-7 and T47D cells

Question: What about the “Cell proliferation normalised to DMSO treated WT cells” value (shortened to “Cell proliferation normalised”) (MCF-7 cells; MCF-7 LATS1/2 dKO, VT02956 0.5 uM) of the same compound?
Answer: 31.2704 and 24.43 and 25.4072

Question: And the “Cell proliferation normalised” value (MCF-7 cells; MCF-7 LATS1/2 dKO, VT02956 2 uM)?
Answer: 23.4528 and 26.3844 and 21.4984

Question: What about the “Cell proliferation normalised” value (MCF-7 cells; MCF-7 WT, VT02956 0.5 uM) of the same compound?
Answer: 76.2215 and 83.0619 and 85.9935

Question: And the “Cell proliferation normalised” value (MCF-7 cells; MCF-7 WT, VT02956 2 uM)?
Answer: 41.0423 and 42.0195

Question: And the “Cell proliferation normalised” value (MCF-7 cells; MCF-7 YAP/TAZ dKO, VT02956 0.5 uM)?
Answer: 94.7883 and 88.9251 and 92.8339

Question: And the “Cell proliferation normalised” value (MCF-7 cells; MCF-7 YAP/TAZ dKO, VT02956 2 uM)?
Answer: 84.0391 and 80.1303 and 85.0163

Question: And the remaining activity at 0.005 µM (PKA)?
Answer: 68%

Question: What about the remaining activity at 0.005 µM (AKT2) of the same compound?
Answer: 85%

Question: What about the “% enzymatic activity relative to DMSO controls” value (AKT1) of the same compound?
Answer: 78%
